Experimental data published in paper PMC10865345, “Multivalent Calixarene Complexation of a Designed Pentameric Lectin” (Biomacromolecules, 2024).

Molecular target: T1, Pent (designed pentameric 5-bladed β-propeller lectin, 5c2n-N33K)
T1 construct: 47-residue monomer (lacking Met1), homopentamer of ~26 kDa; designed, based on tachylectin-2 (PDB 5C2N)
Assay: X-ray cocrystal structures (forms I and II); 1H-15N HSQC NMR titration
Type: binding, synthetic construct

SMILES: O=S(=O)(O)c1cc2c(O)c(c1)Cc1cc(S(=O)(=O)O)cc(c1O)Cc1cc(S(=O)(=O)O)cc(c1O)Cc1cc(S(=O)(=O)O)cc(c1O)Cc1cc(S(=O)(=O)O)cc(c1O)Cc1cc(S(=O)(=O)O)cc(c1O)Cc1cc(S(=O)(=O)O)cc(c1O)Cc1cc(S(=O)(=O)O)cc(c1O)C2 [sclx8, sulfonato-calix[8]arene]
- Kd: < 3000 nM
